The results in this text go back to US7279465B2, “Use of amphiphilic nucleoside phosphonoformic acid derivatives for the treatment of viral infectious diseases” (Eberhard-Karls-Universitaet, priority 2002, dated 2007).

Values joined by “and” are separate entries in the source; they are usually repeats but may differ in a detail not shown here. Equal values may be shown once. Read-outs that look alike come from different tables or passages of the source.

The test system of data set [1] is multiresistant HCMV strain (GCV/PFA/CDV-resistant). Kind of data set: Modified cell-adapted plaque reduction assay (HFF cocultures), multiresistant HCMV strain. The format is cell-based, human cytomegalovirus (HCMV). The settings on record: for average plaque numbers: 1500 HCMV-infected HFF cells/microculture, multiresistant strain. The source says:
(§1) Cocultures of infected and uninfected human foreskin fibroblasts (HFFs) were used for this purpose.
(§2) The implementation of the assay was described for the first time in Prix, et al., “A simplified assay for screening of drug resistance of cell-associated cytomegalovirus strains,” Journal of Clinical Virology (1998) 11:29-37, and Prix, et al., “Comprehensive restriction analysis of the UL97 region allows early detection of ganciclovir-resistant human cytomegalovirus in an immunocompromised child,” Journal of Infectious Diseases (1999) 180:491-495, and is briefly described below.
(§3) HCMV primary isolates on HFF cells in tube culture were passaged on subconfluent monolayers of HFF grown in small cell culture flasks (25 cm^2), and cultured. When an approx. 20-40% cytopathic effect (CPE) had been reached, the cells were washed with phosphate-buffered saline (PBS) and the monolayer was removed by trypsinization. After the trypsin had been inactivated, the pellet was taken up in Eagle's minimal essential medium (MEM)-10% FCS (foetal calf serum) and subjected to mild filtration for the purpose of separating off cell aggregates.
(§4) In parallel, uninfected HFF cells were cultured on 175 cm^2 dishes, washed, trypsinized and, after further purification steps, taken up in MEM-10% FCS.
[…] In each case 100 μl of each of these dilution steps were pipetted in triplicate into a 96-well microtitre plate. In order to ensure that the cells adhered to the microtitre plate bottom, the cocultures were incubated for at least 4 h before the medium was carefully removed. […]
The primary antibody (anti-IE1-pp72, E13 clone, Paesel & Lorei, Germany), which is directed against the HCMV immediate early antigen (UL123) of HCMV, was then added. […] After the peroxidase/H2O2 substrate had been added, the HCMV immediate early antigen was detected, under a microscope, in the nuclei of the infected fibroblasts as a result of the in situ brown staining. […]
(Plaques are areas of infected cells; plaque reduction assays count them against a control.)

Data set [2] has as its system human prepuce fibroblasts. Kind of data set: Cytotoxic effect in vitro towards fibroblasts. Type of data set: cell-based. The protocol: Since N3 was determined to have a cytotoxic effect in vitro towards human prepuce fibroblasts only at concentrations of >125 μM, adequate therapeutic breadth for in vivo use consequently also exists.
Data set [3] has as its system GCV-resistant/PFA-sensitive HCMV strain. Kind of data set: microbe, parasite or virus in culture. Type of data set: cell-based, human cytomegalovirus (HCMV). The settings on record: for average plaque numbers/microculture: GCV-resistant, PFA/CDV-sensitive strain.
Excerpt: as §1, §2, §3, §4
In order to prepare cocultures, the infected cells were mixed with the uninfected cells in the following manner: 2.5×10^4 uninfected cells/100 μl were mixed, in two different ratios, with 500 and 1000 infected cells/100 μl. In each case 100 μl of each of these dilution steps were pipetted in triplicate into a 96-well microtitre plate. In order to ensure that the cells adhered to the microtitre plate bottom, the cocultures were incubated for at least 4 h before the medium was carefully removed.
The cultures were then incubated for 4 days so as to enable the viruses from the infected single cells to spread in the form of plaque formation by infecting the neighbouring cells.
Following the 4-day incubation, the medium was carefully poured off and the microcultures were permeabilized, and fixed, with 200 μl of ice-cold (−20° C.) methanol. After 20 min, the methanol was removed and the cells were washed twice with PBS.
The primary antibody (anti-IE1-pp72, E13 clone, Paesel & Lorei, Germany), which is directed against the HCMV immediate early antigen (UL123) of HCMV, was then added. […] After the peroxidase/H2O2 substrate had been added, the HCMV immediate early antigen was detected, under a microscope, in the nuclei of the infected fibroblasts as a result of the in situ brown staining.
6.25 μM of the structurally identical, ethyl-esterified compound N4 were also included.
In this experiment, 500 HCMV-infected HFF cells/microculture were used.
For correctly evaluating the plates, the norm was applied that a plaque had to consist of a group of cells containing at least 10 individual cells in order to be included in the count.

A further data set relates to HCMV. Kind of data set: Preliminary screening of antiviral effect in vitro. The format is cell-based, human cytomegalovirus (HCMV). The note with it: compared with unesterified compound.

As to “3′-azido-2′,3′-dideoxythymidylyl-(5′→2)-1-O-octadecyl-rac-glycerol-3-(hydroxycarbonyl)-phosphonate [N3]”, in data set [1] (N3 (6.25 μM recorded)), the average plaque numbers worked out at 2.3. The “concentration with cytotoxic effect in vitro” value in data set [2] is more than 125 µM. Also, in data set [3] (6.25 μM N3, 500 HCMV-infected HFF cells/microculture), the average plaque numbers/microculture is 5.7 and 7.5. Moreover, the “ID50 lower than that for GCV (fold)” value in data set [3] (GCV-resistant strain, 1000 infected cells/microculture) was “approx. 11 ×”. The “antiviral activity higher than that of PFA (fold)” value in data set [3] (GCV-resistant/PFA-sensitive strain, 1000 infected HFF cells/microculture) is on record as “approx. 40 ×”.
In the case of `Nc1nc2c(ncn2COC(CO)CO)c(=O)[nH]1` [GCV, 9-[1,3-dihydroxy-2-propoxymethyl]guanine, reference compound], the average plaque numbers/microculture in data set [3] (5 μM GCV, 500 HCMV-infected HFF cells/microculture) was found to be 19.5. Also, the IC50 in data set [3] (Human betaherpesvirus 5, Table 1, GCVres/PFAsens/CDVsens strain, Niz = 1000 infected cells/microculture, read-out: ID50 (95% CI)) is 14.3 µM.
Take `O=C(O)P(=O)(O)O.[Na]` [PFA, sodium-phosphonoformic acid, reference compound]: in data set [1] (PFA (300 μM recorded)), the average plaque numbers came to 20.5. In addition, the number of plaques in data set [3] (300 μM PFA, 500 HCMV-infected HFF cells/microculture, negative control 37.9) worked out at 5. In addition, the IC50 in data set [3] (Human betaherpesvirus 5, read-out: ID50 (95% CI)) was 64.8 µM.
As to “ethyl 3′-azido-2′,3′-dideoxythymidylyl-(5′→2)-1-O-octadecyl-rac-glycerol-3-(hydroxycarbonyl)-phosphonate [N4]”, the “antiviral activity against multiresistant strains” value in data set [1] (multiresistant strains) is on record as “did not exhibit any antiviral activity”. Besides, the “antiviral effect in vitro” value in the data set with HCMV is recorded as “markedly reduced antiviral effect”.
